PubChem BioAssay (NCI)
“And” between values parts separate entries of the source, which are not always exact repeats. Equal values may be shown once.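 Values below derive from 48-hour exposures of cells grown in 96-well plates, with endpoints linearly interpolated between the two concentrations bracketing the appropriate inhibition level. GI50 is the concentration that inhibits growth by half. TGI: concentration producing complete growth inhibition.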 Where a SMILES comes first, the peptide text is derived from it. [ ]: non-standard residue; d: D form. The star is where a group is joined. ξ: configuration not given here. X16 = COC1=CC(=O)N(C(=O)C(O*)C(C)C)C1Cc1ccccc1; ξNMe2Val = CC(C)C(C(=O)*)N(C)C; NMeV = CN[CH](C(=O)O)C(C)C

Tests used:
Assay in all cases: growth of human tumour cells (NCI), 48 h
SF-539 CNS = system: SF-539 CNS
SNB-78 CNS = system: SNB-78 CNS
M19-MEL melanoma = system: M19-MEL melanoma
OVCAR-8 ovarian = system: OVCAR-8 ovarian
KM20L2 colon = system: KM20L2 colon
HOP-18 NSCLC = system: HOP-18 NSCLC
DLD-1 colon = system: DLD-1 colon
XF 498 CNS = system: XF 498 CNS
DMS 273 small cell lung = system: DMS 273 small cell lung
DMS 114 small cell lung = system: DMS 114 small cell lung

SMILES	TGI (SF-539 CNS)	TGI (SNB-78 CNS)	TGI (M19-MEL melanoma)	TGI (OVCAR-8 ovarian)	TGI (KM20L2 colon)	TGI (HOP-18 NSCLC)	TGI (DLD-1 colon)	TGI (XF 498 CNS)	TGI (DMS 273 small cell lung)	TGI (DMS 114 small cell lung)	GI50 (SF-539 CNS)	GI50 (SNB-78 CNS)	GI50 (M19-MEL melanoma)	GI50 (OVCAR-8 ovarian)	GI50 (KM20L2 colon)	GI50 (HOP-18 NSCLC)	GI50 (DLD-1 colon)	GI50 (XF 498 CNS)	GI50 (DMS 273 small cell lung)	GI50 (DMS 114 small cell lung)
Oc1c(Cl)c2nccnc2c2ccccc12	> 100 µM	> 100 µM	> 100 µM	> 100 µM	> 100 µM	> 100 µM	> 100 µM	> 100 µM	> 100 µM	> 100 µM										
COC1=CC(=O)N(C(=O)C(OC(=O)C2CCCN2C(=O)C2CCCN2C(=O)C(C(C)C)N(C)C(=O)C(NC(=O)C(C(C)C)N(C)C)C(C)C)C(C)C)C1Cc1ccccc1 (configuration not stated) (ξNMe2Val-V[NMeV]PP-X16; configuration not given here)	0.00516 µM and 0.0481 µM	0.811 µM	> 4 µM			> 4 µM	> 4 µM		< 0.0004 µM	0.00601 µM and 0.00714 µM	< 0.0004 µM	< 0.0004 µM	< 0.0004 µM	< 0.0004 µM	< 0.0004 µM	> 4 µM	< 0.0004 µM	< 0.0004 µM	< 0.0004 µM	< 0.0004 µM
